Publication PMC6161599, “Inhibition of O-acetylserine sulfhydrylase by fluoroalanine derivatives” (Journal of Enzyme Inhibition and Medicinal Chemistry, 2018)

Columns and labels:
Type in all cases: biochemical
[1] = target: T1, O-acetylserine sulfhydrylase A (OASS-A, CysK) (Salmonella enterica, UniProt P0A1E3); experiment: ninhydrin cysteine activity assay; inactivation kinetics; PLP absorbance and fluorescence changes
T1 construct: recombinant STOASS-A, His-tag removed with factor Xa

[2] = target: T2, O-acetylserine sulfhydrylase B (OASS-B, CysM) (Salmonella enterica, UniProt P29848); experiment: as above
T2 construct: recombinant STOASS-B, His-tag removed with factor Xa
T2 sequence (P29848 whole entry): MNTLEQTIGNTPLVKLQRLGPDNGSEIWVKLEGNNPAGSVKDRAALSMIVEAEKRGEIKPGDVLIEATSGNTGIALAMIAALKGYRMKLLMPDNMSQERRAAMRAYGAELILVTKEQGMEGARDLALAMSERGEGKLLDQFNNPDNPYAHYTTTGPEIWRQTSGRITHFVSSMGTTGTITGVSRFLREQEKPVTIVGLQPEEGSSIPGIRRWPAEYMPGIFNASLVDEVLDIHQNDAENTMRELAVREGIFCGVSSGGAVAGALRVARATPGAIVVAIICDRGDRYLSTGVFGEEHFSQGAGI

[3] = target: T1, O-acetylserine sulfhydrylase A (OASS-A, CysK); experiment: ninhydrin cysteine activity assay; PLP absorbance ([…] to […] nm) and fluorescence changes
[4] = target: T2, O-acetylserine sulfhydrylase B (OASS-B, CysM); experiment: ninhydrin cysteine activity assay; PLP absorbance and fluorescence changes

T1 sequence (P0A1E3 2-323): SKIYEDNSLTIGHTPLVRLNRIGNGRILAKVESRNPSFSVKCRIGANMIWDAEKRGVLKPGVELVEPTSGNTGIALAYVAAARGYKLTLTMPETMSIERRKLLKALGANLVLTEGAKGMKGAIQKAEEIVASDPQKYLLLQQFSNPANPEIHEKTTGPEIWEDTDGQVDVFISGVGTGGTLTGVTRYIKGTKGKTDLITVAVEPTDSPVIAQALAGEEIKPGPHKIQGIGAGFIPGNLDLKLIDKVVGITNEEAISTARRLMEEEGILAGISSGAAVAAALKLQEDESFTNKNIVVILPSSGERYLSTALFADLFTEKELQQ

SMILES | IC50 [1] [µM] | IC50 [2] [µM] | IC50 [3] [µM] | IC50 [4] [µM]
N[C@H](C(=O)O)C(F)(F)F [triF-Ala, β,β,β-trifluoroalanine] | 130 ± 10 | 940 ± 60 |  | 
NC(CF)C(=O)O (stereo not shown) [F-Ala, monofluoroalanine] |  |  | 480 ± 50 | 1290 ± 230
